# Laboratory results: PubChem BioAssay (NCI)
#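 48-hour exposure; five concentrations; linearly interpolated endpoints. At the GI50, growth is halved. TGI: concentration producing complete growth inhibition.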
# What was measured:
# Assay in all cases: NCI tumour cell line growth inhibition, 48 h
# [1] = tested on: CCRF-CEM leukemia
# [2] = tested on: SF-268 CNS
# [3] = tested on: PC-3 prostate
# [4] = tested on: 786-0 renal
# [5] = tested on: MDA-MB-231 breast
# [6] = tested on: SK-MEL-5 melanoma
# [7] = tested on: K-562 leukemia
# [8] = tested on: RXF 393 renal
# [9] = tested on: ACHN renal
# [10] = tested on: BT-549 breast
Structure (SMILES),TGI [1] [µM],TGI [2] [µM],TGI [3] [µM],TGI [4] [µM],TGI [5] [µM],TGI [6] [µM],TGI [7] [µM],TGI [8] [µM],TGI [9] [µM],TGI [10] [µM],GI50 [2] [µM],GI50 [4] [µM],GI50 [6] [µM],GI50 [7] [µM],GI50 [8] [µM],GI50 [9] [µM],GI50 [1] [µM],GI50 [3] [µM],GI50 [5] [µM],GI50 [10] [µM]
CC(=O)OC12c3ccccc3-c3ccccc3C1C(C(=O)O)C2(Cl)C(=O)O (centres undefined),> 10,> 10,> 10,> 10,> 10,> 10,> 10,> 10,> 10,,,,,,,,,,,
CC1(C)CCCC(C)(C2CCC3(C)C2C(O)CC2C4(C)CCC(O)C(C)(C)C4C(O)CC23C)O1 (centres undefined),8.67,31.9,25.7,72.5,34.8,17.6,25.1,,24.5,28.5,,,,,,,,,,
Cc1cc(=O)n2c3c(c4c(cc13)c(CO)cc(=O)n4C)OC2,56.8,52.6,,> 100,,75.3,97.7,,63.5,,,,,,,,,,,
N.N.O=P([O-])([O-])CN(CCN(CP(=O)([O-])[O-])CP(=O)([O-])[O-])CP(=O)([O-])[O-].[Pt+2],,> 100,,> 100,,> 100,> 100,> 100,> 100,,> 100,> 100,> 100,> 100,> 100,> 100,,,,
Cc1ccc(/C=C/C(=N/N=C(N)N)c2ccccc2)cc1,18.9,16.3,16.9,6.53,4.56,3.86,10.4,4.03,17.4,,4.13,2.41,1.69,0.889,1.62,4.17,2.34,3.32,1.7,
CCC(C)[C@H](NC(=O)NC(=O)NC(=O)CI)C(=O)OC (some centres undefined),,28.5,26.7,23.4,30.7,30.5,4.48,15.2,4.43,22.4,12.6,11.3,16.7,2.03,4.51,2.11,,12.2,13.6,10.6
O=C(/C=C/c1ccccc1Cl)c1cccc2ccccc12,45.2,28.4,,17.9,,34,> 100,28.6,30.4,,,,,,,,,,,
O=[N+]([O-])c1ccc(Sc2nc(Cl)nc(NC3CCCC3)n2)cc1,,> 10,> 10,> 10,> 10,> 10,> 10,> 10,> 10,> 10,> 10,> 10,5.32,5.89,3.34,> 10,,> 10,> 10,> 10
CCOC(=O)C1=C(C)N(Cc2ccccc2)C(=O)C1CC#N (centres undefined),> 100,,,> 100,,,> 100,> 100,> 100,,,,,,,,,,,
CCN(CC)CCOc1ccc(/C=C2\C[C@H]3[C@H]4CC=C5C[C@@H](O)CC[C@]5(C)[C@H]4CC[C@]3(C)[C@H]2O)cc1OC,,47,,16.1,14.2,11.1,32,39.3,17.4,,14.9,5.09,0.625,8.09,13.4,9.23,,,6.94,
CC(C)(CCN=C(N)Nc1ccccn1)c1ccc(C(F)(F)F)cc1,58.4,35.6,28.9,28.2,29.8,25,,29.6,26.5,31.2,16.5,13.3,12,,14.6,13.5,17.7,14.2,14.9,15.1
C[C@]12CCC[C@H](O)[C@H]1C[C@H](CO)CC2,> 100,> 100,,> 100,,,> 100,,> 100,,,,,,,,,,,
O=C(NNc1ccc(F)cc1)C1CCC(CNS(=O)(=O)c2ccc(Cl)c(Cl)c2)CC1 (centres undefined),> 50,> 50,39.5,> 50,25.4,33.1,> 50,,13.4,> 50,4.76,17.9,10.8,1.71,,4.08,16.1,6.3,3.17,19.1
COC(=O)C[CH2][Ge]([CH3])([CH3])[S]c1ccccc1,24.3,43.7,,45,,> 100,> 100,23.3,88.4,,18.2,21.6,32.6,34.8,4.08,28.6,5.27,,,
NC1=NN(c2ccccc2)C(=O)C1/C(=N\NC(=O)c1cc2ccccc2cc1O)C(=O)Nc1cccc(C(F)(F)F)c1 (centres undefined),34.1,> 100,,> 100,,51.8,,> 100,> 100,,,,,,,,,,,
COc1ccc2c(c1)[n+]([O-])c(-c1ccc(Br)cc1)c(N)[n+]2[O-],> 100,> 100,,> 100,,36.5,> 100,> 100,> 100,,,,,,,,,,,
CC1(c2cccc(N)c2)C2C(=O)NC(=O)C1C(=O)NC2=O (centres undefined),62.5,> 100,,> 100,,37,67.3,71.2,78.5,,,,,,,,,,,
N#Cc1cc([N+](=O)[O-])ccc1NC(=O)C(F)(F)F,> 100,> 100,,> 89.5,,> 100,> 100,> 100,> 100,,,,,,,,,,,
C/C=C(/CCC1NCCC2c3ccccc3NC12)[Si](C)(C)C (centres undefined),57,23.5,,23.7,,26,7.7,19.2,27.2,,,,,,,,,,,
COc1cccc(NC(=O)C(C)(C)C)c1SSc1c(NC(=O)C(C)(C)C)cccc1OC,> 89.5,32.7,,53.1,,> 100,> 82.5,35.3,> 100,,,,,,,,,,,

Structure (SMILES),TGI [1] [µM],TGI [2] [µM],TGI [3] [µM],TGI [4] [µM],TGI [5] [µM],TGI [6] [µM],TGI [7] [µM],TGI [8] [µM],TGI [9] [µM],TGI [10] [µM],GI50 [2] [µM],GI50 [4] [µM],GI50 [6] [µM],GI50 [7] [µM],GI50 [8] [µM],GI50 [9] [µM],GI50 [1] [µM],GI50 [3] [µM],GI50 [5] [µM],GI50 [10] [µM]
C1COCCOCCOCCOCCOCCO1.[Cl][Sn]([Cl])([c]1ccccc1)[c]1ccccc1,,8.65,,5.51,,17.2,10.2,4.06,22.8,,2.8,2.41,4.86,2.44,2.21,10.9,,,,
Cn1c(=O)c2ccc(-c3ccc(Br)cc3)nc2n(C)c1=O,> 100,> 100,,> 100,,> 100,> 100,,,,,,,,,,,,,
N#Cc1ccsc1NC(=O)COC(=O)c1cccc(S(=O)(=O)N2CCc3ccccc32)c1,> 100,> 100,> 100,> 100,,> 100,> 100,> 100,> 100,> 100,13.4,47.3,21.1,21.3,31.3,50.5,14.5,27.1,,34
NC(=O)c1ncn(CCN2CCN(C(=O)NCCCCCCNC(=O)N3CCN(CCn4cnc(C(N)=O)c4N)CC3)CC2)c1N,> 100,> 100,,> 100,,> 100,> 100,> 100,> 100,,,,,,,,,,,
Clc1nc(Cl)c2c3c(sc2n1)CCCC3,> 100,> 100,,> 100,,,> 100,> 100,> 100,> 100,4.37,5.17,,3.77,4.06,5.27,17.1,,,3.63
O=S1(=O)NC2CCC3NS(=O)(=O)NC4CCC(N1)N4S(=O)(=O)N23 (centres undefined),,> 100,> 100,> 100,> 100,> 100,> 100,> 100,> 100,> 100,,,,,,,,,,
CSCC[C@H](NC(=O)[C@H](CC(C)C)NC(=O)[C@@H](Cc1ccccc1)NC(=O)CNC(=O)[C@@H](NC(=O)[C@H](C)NC(=O)[C@H](Cc1c[nH]c2ccccc12)NC(=O)[C@H](CCC(N)=O)NC(=O)[C@H](N)CC(N)=O)C(C)C)C(N)=O,> 12.5,> 12.5,> 12.5,> 12.5,> 12.5,> 12.5,> 12.5,> 12.5,> 12.5,,,,,,,,,,,
COC(=O)N/N=C(\C(=O)Nc1cccc([N+](=O)[O-])c1)c1nc2ccc([N+](=O)[O-])cc2[nH]c1=O,> 100,13.3,,> 100,,> 100,> 100,> 100,> 100,,,,,,,,,,,
Cc1ccc(NC(=O)CC/C(CC(=O)C(C)(C)C)=N/NC(=O)C[N+](C)(C)C)cc1C,> 100,> 100,,52.9,,> 100,> 100,> 100,> 100,,,,,,,,,,,
CSc1nc2c(nc(N)n2C2OC(COC(C)=O)C(OC(C)=O)C(OC(C)=O)C2OC(C)=O)c(=O)n1C (centres undefined),> 100,,,> 100,,> 100,> 100,> 100,> 100,,,,,,,,,,,
c1ccc(CN2CCC3(CC2)SSC2(CCN(Cc4ccccc4)CC2)SS3)cc1,,> 100,> 100,> 100,> 100,> 100,> 100,> 100,> 100,> 100,,,,,,,,,,
CC(=O)[CH-]C(=O)c1ccccc1.CC(=O)[CH-]C(=O)c1ccccc1.CC1(C)OCC(C2OC3OC(C)(C)OC3C2[O-])O1.CC1(C)OCC(C2OC3OC(C)(C)OC3C2[O-])O1.[Ti+4] (centres undefined),39.8,30,,27.3,,,71.4,25.3,38.1,,11.6,11.8,,14.2,12.5,16.4,3.49,,,
COC(=O)C1=CC2CC1C(S(=O)(=O)c1ccccc1)C2S(=O)(=O)c1ccccc1 (centres undefined),8.44,53.5,,22.2,,33.2,32.3,,,,,,,,,,,,,
CC(=O)[CH-]C(=O)c1ccccc1.CC(=O)[CH-]C(=O)c1ccccc1.CC[C@H](/C=C/C(C)[C@H]1CCC2[C@@H]3CC=C4C[C@@H]([O-])CC[C@]4(C)C3CC[C@@]21C)C(C)C.CC[O-].[Ti+4] (some centres undefined),> 100,> 100,,> 100,,> 100,> 100,> 100,> 100,,> 100,> 100,> 100,> 100,84.4,16.2,61.4,,,
CN(C)CCC=C1c2ccccc2C(C)(C)c2ccccc21,28.4,27.8,24.3,27,28.8,5.09,19,,27.9,,14.7,12.8,1.9,3,,14.7,9.84,10.4,13.8,
O=C(CC1(O)C(=O)Nc2ccccc21)c1ccc(F)cc1 (centres undefined),,> 100,,> 100,,> 100,> 100,> 100,> 100,,,,,,,,,,,
C/C(=N\NS(=O)(=O)c1ccc(C)cc1)c1cc2ccccc2n1C,> 100,> 100,,> 100,,> 100,> 100,,> 100,,,,,,,,,,,
CN(C)CCC(CCN(C)C)=NOC(=O)c1ccccc1,> 100,> 100,,> 100,,> 100,> 100,> 100,> 100,,,,,,,,,,,
Cn1cc(-c2csc(-c3cn(CCCCN4CCCCC4)c4ccc(F)cc34)n2)c2cccnc21,,3.32,,3.02,,,,3.04,,3.13,1.68,1.65,,,1.52,,,,,1.67
